What is called melting point is the temperature of the solid-liquid transition. The pKi is the negative decadic logarithm of the Ki, by convention in mol/L. Low values mean a large Ki, high ones a small Ki. In general, Kb refers to the affinity of an antagonist, worked out from how it opposes an agonist. A high value points to a less potent antagonist.

pKi: −log10 of the molar value. Where two headings read alike, the source gives them in different places.

The values below come from patent US7109216B2 (priority 2001, dated 2006).

For series [1], the target named is T1, human cannabinoid CB1 receptor (Homo sapiens, UniProt P21554). The series is described as follows: biochemical. The settings on record: [3H]CP-55,940 radioligand, CHO cell membranes stably transfected with human CB1; for Ki: read-out: hCB1 pKi (converted); for pKi: hCB1 pKi. The series is classed as binding. On the set-up: expressed in transfected cells; host or cells: Chinese hamster ovary (CHO) cells, membrane preparation. As to the method: After incubation of a freshly prepared cell membrane preparation with the [^3H]-ligand, with or without addition of compounds of the invention, separation of bound and free ligand was performed by filtration over glassfiber filters. Radioactivity on the filter was measured by liquid scintillation counting.
T1 sequence (P21554 whole entry): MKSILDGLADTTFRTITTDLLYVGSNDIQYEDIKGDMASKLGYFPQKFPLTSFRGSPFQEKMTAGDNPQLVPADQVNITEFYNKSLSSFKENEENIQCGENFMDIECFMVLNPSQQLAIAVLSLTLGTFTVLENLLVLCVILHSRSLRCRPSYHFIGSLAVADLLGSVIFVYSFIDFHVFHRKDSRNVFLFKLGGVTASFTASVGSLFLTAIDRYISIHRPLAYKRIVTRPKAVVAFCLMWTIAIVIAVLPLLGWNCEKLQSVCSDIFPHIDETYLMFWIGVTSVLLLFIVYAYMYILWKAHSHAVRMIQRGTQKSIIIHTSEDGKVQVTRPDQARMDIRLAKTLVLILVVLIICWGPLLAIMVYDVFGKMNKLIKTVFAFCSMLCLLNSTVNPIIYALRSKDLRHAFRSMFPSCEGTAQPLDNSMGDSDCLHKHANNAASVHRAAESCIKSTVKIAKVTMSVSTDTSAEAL

The target in series [2] is T1, human cannabinoid CB1 receptor. The series is described as follows: Cannabinoid CB1 antagonistic activity, forskolin-induced cAMP accumulation in CHO cells. The class given is cell-based. On the set-up: expressed in transfected cells; host or cells: CHO cells. As to the method: The cannabinoid CB1 antagonistic activity of compounds of the invention was determined by functional studies using CHO cells in which human cannabinoid CB1 receptors were stably expressed. Adenylyl cyclase was stimulated using forskolin and measured by quantifying the amount of accumulated cyclic AMP. Concomitant activation of CB1 receptors by CB1 receptor agonists (e.g. CP-55,940 or (R)-WIN-55,212–2) can attenuate the forskolin-induced accumulation of cAMP in a concentration-dependent manner. This CB1 receptor-mediated response can be antagonized by CB1 receptor antagonists such as the compounds of the invention.
A general note: cAMP levels reflect the balance of adenylyl cyclase and phosphodiesterase activity.

`COc1ccc(-n2c(-c3ccc(Cl)cc3Cl)nc(C(=O)NC3CCCCC3)c2C)cc1` [Example 49, N-(1-cyclohexyl)-2-(2,4-dichlorophenyl)-5-methyl-1-(4-methoxyphenyl)-1H-imidazole-4-carboxamide] had a melting point of 160 to 161 °C. Further, the Ki in series [1] is 126 nM.

Compound `Cc1c(C(=O)NN2CCCCC2)nc(-c2ccc(Cl)cc2C(F)(F)F)n1-c1ccc(Cl)cc1` [Example 58, 1-(4-Chlorophenyl)-5-methyl-N-(piperidin-1-yl)-2-(2-trifluoromethyl-4-chlorophenyl)-1H-imidazole-4-carboxamide] yielded a melting point of 165 °C. Also, in series [1], the Ki was 200 nM.

`COc1cc(Cl)ccc1-c1nc(C(=O)NN2CCCCC2)cn1-c1ccc(Cl)cc1` [Example 28, 1-(4-Chlorophenyl)-2-(2-methoxy-4-chlorophenyl)-N-(piperidin-1-yl)-1H-imidazole-4-carboxamide] registered a melting point of 220 °C. Further, in series [1], the pKi was 7.20.

With `CCc1c(C(=O)NN2CCCCC2)nc(-c2ccccc2Cl)n1-c1ccc(Cl)cn1` [Example 116, 1-(5-chloropyrid-2-yl)-2-(2-chlorophenyl)-5-ethyl-N-(piperidin-1-yl)-1H-imidazole-4-carboxamide], the melting point lay in the range of 217 to 219 °C. The compound also had a pKi in series [1] of 7.90.

In turn, `COc1ccc(-n2cc(C(=O)NN3CCCCC3)nc2-c2ccc(Cl)cc2Cl)cc1` [Example 35, 2-(2,4-Dichlorophenyl)-1-(4-methoxyphenyl)-N-(piperidin-1-yl)-1H-imidazole-4-carboxamide] displayed a melting point of 178 to 179 °C. In series [1], this compound had a negative-log Ki (pKi) of 7.30.

In the case of `Cc1c(C(=O)NCCc2ccc(F)cc2)nc(-c2ccccc2Cl)n1-c1cccc(F)c1` [Example 74, 2-(2-Chlorophenyl)-1-(3-fluorophenyl)-N-(2-(4-fluorophenyl)ethyl)-5-methyl-1H-imidazole-4-carboxamide], the melting point fell in the range of 123.5 to 126 °C. In series [1], the Ki is 398 nM.

`Cc1ccc(-c2nc(C(=O)NC3CCCCC3)c(C)n2-c2ccc(Cl)cc2)n1C` [Example 69, 1-(4-Chlorophenyl)-N-(cyclohexyl)-2-(1,5-dimethyl-1H-pyrrol-2-yl)-5-methyl-1H-imidazole-4-carboxamide] gave a melting point of 188 to 189 °C. For the same compound, in series [1], the negative logarithm of the Ki (pKi) is 7.40.

Turning to `Cc1c(C(=O)NOC2CCCCO2)nc(-c2ccc(Cl)cc2Cl)n1-c1ccc(Cl)cc1` (centres unmarked) [Example 83, 1-(4-Chlorophenyl)-2-(2,4-dichlorophenyl)-5-methyl-N-(tetrahydro-2H-pyran-2-yloxy)-1H-imidazole-4-carboxamide], the melting point lay in the range of 128 to 133 °C. Further, the pKi in series [1] is 8.40.

On to `O=C(NN1CCCCC1)c1nc(-c2ccc(Cl)cc2Cl)n(-c2ccc(Cl)cc2)c1CO` [Example 115, 1-(4-chlorophenyl)-2-(2,4-dichlorophenyl)-5-hydroxymethyl-N-(piperidin-1-yl)-1H-imidazole-4-carboxamide], for which the melting point was 212 to 214 °C. The same compound showed a negative-log Ki (pKi) in series [1] of 7.50.

Compound `CCc1c(C(=O)NN2CCOCC2)nc(-c2ccc(Cl)cc2Cl)n1-c1ccc(Cl)cn1` [Example 76, 1-(5-Chloropyridin-2-yl)-2-(2,4-dichlorophenyl)-5-ethyl-N-(4-morpholinyl)-1H-imidazole-4-carboxamide] displayed a melting point of 223 °C. For the same compound, the Ki in series [1] was 251 nM.

As to `O=C(NN1CCCCC1)c1cn(-c2ccc(F)cc2)c(-c2ccc(Cl)cc2Cl)n1` [Example 31, 2-(2,4-Dichlorophenyl)-1-(4-fluorophenyl)-N-(piperidin-1-yl)-1H-imidazole-4-carboxamide], the melting point was 175 to 176 °C. In addition, the Ki in series [1] was 200 nM.

`Cc1c(C(=O)Nc2cccc(C(F)(F)F)c2)nc(-c2ccc(Cl)cc2Cl)n1-c1ccc(Cl)cc1` [Example 104, 1-(4-Chlorophenyl)-2-(2,4-dichlorophenyl)-5-methyl-N-(3-(trifluoromethyl)phenyl)-1H-imidazole-4-carboxamide] had a melting point of 177 °C. In addition, the pKi in series [1] is 8.20.

Compound `Cc1c(C(=O)NC2CCCCC2)nc(-c2ccc(Cl)cc2Cl)n1-c1ccc(C(F)(F)F)cc1` [Example 47, N-Cyclohexyl-2-(2,4-dichlorophenyl)-5-methyl-1-(4-(trifluoromethyl)phenyl)-1H-imidazole-4-carboxamide] came in with a melting point of 178 to 179 °C. Besides, the Ki in series [1] was 158 nM.

For `Cc1c(C(=O)NCc2ccc(F)cc2)nc(-c2ccc(Cl)cc2Cl)n1-c1ccc(Cl)cn1` [Example 56, 1-(5-Chloropyridin-2-yl)-2-(2,4-dichlorophenyl)-N-(4-fluorobenzyl)-5-methyl-1H-imidazole-4-carboxamide], the melting point lay within 123 to 126 °C. The Ki in series [1] is 158 nM.

`CCCCCNC(=O)c1nc(-c2ccc(Cl)cc2F)n(-c2ccc(Cl)cc2)c1C` [Example 67, 1-(4-Chlorophenyl)-2-(2-fluoro-4-chlorophenyl)-5-methyl-N-(n-pentyl)-1H-imidazole-4-carboxamide]: the melting point amounted to 115 °C. Also, the pKi in series [1] was 6.40.

In turn, `O=C(NC1CCCCC1)c1nc(-c2ccc(Cl)cc2Cl)n(-c2ccc(Cl)cc2)c1I` [Example 112, 1-(4-Chlorophenyl)-N-cyclohexyl-2-(2,4-dichlorophenyl)-5-iodo-1H-imidazole-4-carboxamide] showed a melting point of 226 to 230 °C. In series [1], the negative-log Ki (pKi) is 8.20.

On to `Cc1c(C(=O)Nc2ccccc2)nc(-c2ccc(Cl)cc2Cl)n1-c1ccc(Cl)cc1` [Example 82, 1-(4-Chlorophenyl)-2-(2,4-dichlorophenyl)-5-methyl-N-phenyl-1H-imidazole-4-carboxamide], for which the melting point was in the range of 91 to 95 °C. This compound also gave a pKi in series [1] of 8.60.

For `Cc1c(C(=O)NCc2ccc(F)cc2)nc(-c2ccc(Cl)cc2Cl)n1-c1ccc(Cl)cc1` [Example 90, 1-(4-Chlorophenyl)-2-(2,4-dichlorophenyl)-N-(4-fluorobenzyl)-5-methyl-1H-imidazole-4-carboxamide], the melting point was in the range of 165 to 166 °C. In addition, the pKi in series [1] was 8.00.

As to `Cc1c(C(=O)NOC(C)(C)C)nc(-c2ccc(Cl)cc2Cl)n1-c1ccc(Br)cc1` [Example 16, 1-(4-Bromophenyl)-N-(t-butoxy)-2-(2,4-dichlorophenyl)-5-methyl-1H-imidazole-4-carboxamide], the antagonist dissociation constant (Kb) in series [2] was 15.8 nM.

`Cc1c(C(=O)NCc2cccc(C(F)(F)F)c2)nc(-c2ccc(Cl)cc2Cl)n1-c1ccc(Cl)cc1` [Example 105, 1-(4-Chlorophenyl)-2-(2,4-dichlorophenyl)-5-methyl-N-(3-(trifluoromethyl)benzyl)-1H-imidazole-4-carboxamide]: the melting point lay within 138 to 140 °C. The negative-log Ki (pKi) in series [1] was 7.50.

In turn, `Cc1c(C(=O)NN2CCCCC2)nc(-c2ccccc2Cl)n1-c1cccc(F)c1` [Example 71, 2-(2-Chlorophenyl)-1-(3-fluorophenyl)-5-methyl-N-(piperidin-1-yl)-1H-imidazole-4-carboxamide] had a melting point of 236 to 238 °C. The compound further gave a pKi in series [1] of 7.40.

Take `Cc1c(C(=O)NC2CCCCC2)nc(-c2ccccc2Cl)n1-c1cccc(F)c1` [Example 73, 2-(2-Chlorophenyl)-N-cyclohexyl-1-(3-fluorophenyl)-5-methyl-1H-imidazole-4-carboxamide]: the melting point was in the range of 180 to 182.5 °C. This compound also gave a negative-log Ki (pKi) in series [1] of 7.90.

As for `O=C(NC1CCCCC1)c1cn(-c2ccc(Cl)cc2)c(-c2ccc(Cl)cc2F)n1` [Example 33, N-Cyclohexyl-2-(2-fluoro-4-chlorophenyl)-1-(4-chlorophenyl)-1H-imidazole-4-carboxamide], the melting point is 157 to 159 °C. For the same compound, the Ki in series [1] was 501 nM.

Compound `O=C(NC1CCCCC1)c1cn(-c2ccc(F)cc2)c(-c2ccc(Cl)cc2Cl)n1` [Example 32, N-Cyclohexyl-2-(2,4-dichlorophenyl)-1-(4-fluorophenyl)-1H-imidazole-4-carboxamide] came in with a melting point of 184 to 185 °C. Besides, the negative logarithm of the Ki (pKi) in series [1] was 7.60.

Compound `N#Cc1c(C(=O)NC2CCCCC2)nc(-c2ccc(Cl)cc2Cl)n1-c1ccc(Cl)cc1` [Example 113, 1-(4-Chlorophenyl)-5-cyano-N-cyclohexyl-2-(2,4-dichlorophenyl)-1H-imidazole-4-carboxamide] yielded a melting point of 157 to 158 °C. The negative-log Ki (pKi) in series [1] was 7.80.

`CCc1c(C(=O)NN2CCCCC2)nc(-c2ccc(Cl)cc2Cl)n1-c1ccc(Cl)cn1` [Example 75, 1-(5-Chloropyridin-2-yl)-2-(2,4-dichlorophenyl)-5-ethyl-N-(piperidin-1-yl)-1H-imidazole-4-carboxamide] gave a melting point of 146 °C. The same compound had a negative-log Ki (pKi) in series [1] of 7.00.

Turning to `Cc1ccc(-c2nc(C(=O)NN3CCCCC3)c(C)n2-c2ccc(Cl)cc2)n1C` [Example 70, 1-(4-Chlorophenyl)-2-(1,5-dimethyl-1H-pyrrol-2-yl)-5-methyl-N-(piperidin-1-yl)-1H-imidazole-4-carboxamide], the melting point lay in the range of 208 to 210 °C. The compound further gave a pKi in series [1] of 8.30.
